Like-named read-outs stand apart in the source and are kept apart here.
Legend:
[1] = biological target: PI3K-p110β (Homo sapiens, UniProt P42338); experiment: Biochemical PI3K-p110β inhibition
[2] = biological target: PI3K-p110γ (Homo sapiens, UniProt P48736); experiment: Biochemical PI3K-p110γ inhibition
[3] = biological target: PI3K-p110 α (Homo sapiens, UniProt P42336); experiment: Biochemical PI3K-p110α inhibition
[4] = biological target: PI3K-p110δ (Homo sapiens, UniProt O00329); experiment: Biochemical PI3K-p110δ inhibition
Chain of PI3K-p110δ (O00329 whole entry): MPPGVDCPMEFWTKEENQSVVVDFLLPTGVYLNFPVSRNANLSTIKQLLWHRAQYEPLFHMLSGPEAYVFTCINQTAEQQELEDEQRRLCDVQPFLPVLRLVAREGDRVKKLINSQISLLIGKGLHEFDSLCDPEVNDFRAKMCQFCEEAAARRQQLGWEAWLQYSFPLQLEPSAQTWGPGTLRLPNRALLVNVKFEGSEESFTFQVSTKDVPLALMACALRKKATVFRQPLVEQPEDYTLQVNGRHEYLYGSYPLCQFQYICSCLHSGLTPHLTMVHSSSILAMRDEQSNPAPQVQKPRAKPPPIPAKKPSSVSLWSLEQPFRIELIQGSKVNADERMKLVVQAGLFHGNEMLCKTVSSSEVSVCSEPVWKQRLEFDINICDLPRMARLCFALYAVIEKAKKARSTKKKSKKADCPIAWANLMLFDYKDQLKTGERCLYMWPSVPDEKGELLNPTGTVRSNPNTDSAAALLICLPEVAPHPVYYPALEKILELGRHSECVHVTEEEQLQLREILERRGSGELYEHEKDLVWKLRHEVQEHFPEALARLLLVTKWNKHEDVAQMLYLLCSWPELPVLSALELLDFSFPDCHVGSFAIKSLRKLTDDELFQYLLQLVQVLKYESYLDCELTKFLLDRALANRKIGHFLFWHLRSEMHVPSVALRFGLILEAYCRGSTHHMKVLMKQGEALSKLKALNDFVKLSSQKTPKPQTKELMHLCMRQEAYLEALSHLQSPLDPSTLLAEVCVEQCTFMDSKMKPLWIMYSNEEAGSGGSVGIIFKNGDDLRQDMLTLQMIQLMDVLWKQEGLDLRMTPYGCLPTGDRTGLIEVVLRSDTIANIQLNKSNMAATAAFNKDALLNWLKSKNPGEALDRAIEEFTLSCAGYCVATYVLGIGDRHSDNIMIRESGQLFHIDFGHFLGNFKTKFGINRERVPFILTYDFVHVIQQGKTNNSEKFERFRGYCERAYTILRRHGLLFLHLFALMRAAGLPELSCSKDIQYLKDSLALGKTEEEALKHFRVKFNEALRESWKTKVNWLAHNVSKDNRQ
Chain of PI3K-p110δ (P27986 whole entry partner): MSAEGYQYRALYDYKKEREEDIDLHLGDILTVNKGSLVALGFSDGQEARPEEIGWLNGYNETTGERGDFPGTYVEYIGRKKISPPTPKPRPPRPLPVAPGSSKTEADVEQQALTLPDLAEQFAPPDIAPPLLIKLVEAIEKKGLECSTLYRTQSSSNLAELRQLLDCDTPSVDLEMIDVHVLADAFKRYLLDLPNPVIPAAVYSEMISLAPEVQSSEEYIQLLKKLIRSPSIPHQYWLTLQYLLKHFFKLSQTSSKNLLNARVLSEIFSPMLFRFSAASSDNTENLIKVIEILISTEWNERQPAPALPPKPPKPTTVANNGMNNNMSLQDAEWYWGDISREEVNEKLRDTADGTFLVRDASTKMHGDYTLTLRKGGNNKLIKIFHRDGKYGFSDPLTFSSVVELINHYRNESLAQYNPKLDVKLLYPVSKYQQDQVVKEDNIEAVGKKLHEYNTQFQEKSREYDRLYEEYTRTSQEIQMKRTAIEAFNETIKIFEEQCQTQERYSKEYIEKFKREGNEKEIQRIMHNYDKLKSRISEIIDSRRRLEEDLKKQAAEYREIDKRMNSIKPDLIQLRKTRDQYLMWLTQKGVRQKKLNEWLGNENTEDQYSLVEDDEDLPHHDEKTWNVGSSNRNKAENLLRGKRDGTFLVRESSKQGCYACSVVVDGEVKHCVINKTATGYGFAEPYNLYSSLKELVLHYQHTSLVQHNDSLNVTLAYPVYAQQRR

Chain of PI3K-p110β (P42338 whole entry): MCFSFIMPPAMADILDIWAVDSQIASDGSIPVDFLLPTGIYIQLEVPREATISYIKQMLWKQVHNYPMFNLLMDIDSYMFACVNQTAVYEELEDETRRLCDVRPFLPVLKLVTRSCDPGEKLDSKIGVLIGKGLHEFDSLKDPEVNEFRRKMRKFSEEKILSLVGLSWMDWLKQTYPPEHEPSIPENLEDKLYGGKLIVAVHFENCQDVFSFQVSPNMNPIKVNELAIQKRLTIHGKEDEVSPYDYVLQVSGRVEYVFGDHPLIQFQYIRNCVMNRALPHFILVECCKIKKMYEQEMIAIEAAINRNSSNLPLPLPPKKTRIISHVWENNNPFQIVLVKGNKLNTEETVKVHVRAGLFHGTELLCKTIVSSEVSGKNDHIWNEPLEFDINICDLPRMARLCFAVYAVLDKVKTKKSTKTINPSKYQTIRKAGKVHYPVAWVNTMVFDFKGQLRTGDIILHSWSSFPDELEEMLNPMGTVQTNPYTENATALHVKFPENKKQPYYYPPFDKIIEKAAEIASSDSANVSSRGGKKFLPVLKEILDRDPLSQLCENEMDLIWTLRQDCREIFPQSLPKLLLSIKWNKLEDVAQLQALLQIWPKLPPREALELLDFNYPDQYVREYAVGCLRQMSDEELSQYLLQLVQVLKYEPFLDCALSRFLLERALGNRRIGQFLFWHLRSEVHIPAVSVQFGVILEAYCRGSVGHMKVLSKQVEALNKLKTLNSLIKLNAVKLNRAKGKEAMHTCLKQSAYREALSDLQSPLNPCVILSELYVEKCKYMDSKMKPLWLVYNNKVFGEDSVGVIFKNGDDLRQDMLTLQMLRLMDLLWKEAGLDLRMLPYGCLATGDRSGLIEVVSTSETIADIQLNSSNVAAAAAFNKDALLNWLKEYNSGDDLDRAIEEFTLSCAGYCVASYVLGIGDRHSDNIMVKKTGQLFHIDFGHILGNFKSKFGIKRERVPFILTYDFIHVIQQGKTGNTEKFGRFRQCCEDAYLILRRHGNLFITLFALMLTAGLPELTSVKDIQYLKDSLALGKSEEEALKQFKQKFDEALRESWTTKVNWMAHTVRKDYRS
Chain of PI3K-p110β (P27986 whole entry partner): as the sequence (P27986 whole entry partner) above
Chain of PI3K-p110γ (P48736 whole entry): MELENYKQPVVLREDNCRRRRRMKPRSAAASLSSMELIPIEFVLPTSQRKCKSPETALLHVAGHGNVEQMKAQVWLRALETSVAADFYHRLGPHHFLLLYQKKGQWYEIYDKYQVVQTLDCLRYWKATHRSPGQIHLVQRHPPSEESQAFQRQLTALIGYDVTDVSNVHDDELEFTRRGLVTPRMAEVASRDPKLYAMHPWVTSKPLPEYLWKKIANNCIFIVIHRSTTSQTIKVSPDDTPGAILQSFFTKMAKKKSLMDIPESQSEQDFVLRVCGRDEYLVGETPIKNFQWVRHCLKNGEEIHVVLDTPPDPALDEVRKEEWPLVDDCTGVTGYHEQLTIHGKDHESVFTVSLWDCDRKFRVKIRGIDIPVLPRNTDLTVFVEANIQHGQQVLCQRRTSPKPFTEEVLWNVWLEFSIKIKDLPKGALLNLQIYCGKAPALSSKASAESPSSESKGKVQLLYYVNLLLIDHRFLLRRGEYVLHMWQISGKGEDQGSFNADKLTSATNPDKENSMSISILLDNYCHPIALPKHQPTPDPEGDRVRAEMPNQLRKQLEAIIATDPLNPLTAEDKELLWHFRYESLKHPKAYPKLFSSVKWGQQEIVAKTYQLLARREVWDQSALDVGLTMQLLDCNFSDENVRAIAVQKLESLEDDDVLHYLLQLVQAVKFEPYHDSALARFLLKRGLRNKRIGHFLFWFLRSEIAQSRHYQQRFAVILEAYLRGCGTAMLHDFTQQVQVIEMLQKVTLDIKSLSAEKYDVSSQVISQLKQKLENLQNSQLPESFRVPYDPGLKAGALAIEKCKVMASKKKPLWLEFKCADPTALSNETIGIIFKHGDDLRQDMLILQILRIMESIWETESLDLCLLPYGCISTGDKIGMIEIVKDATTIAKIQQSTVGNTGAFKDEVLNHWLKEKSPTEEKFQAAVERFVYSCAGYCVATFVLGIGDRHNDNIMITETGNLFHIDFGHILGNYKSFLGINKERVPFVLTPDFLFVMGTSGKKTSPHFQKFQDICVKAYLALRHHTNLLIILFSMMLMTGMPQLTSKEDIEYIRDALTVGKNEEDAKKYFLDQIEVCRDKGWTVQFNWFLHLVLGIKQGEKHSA
Chain of PI3K-p110 α (P42336 whole entry): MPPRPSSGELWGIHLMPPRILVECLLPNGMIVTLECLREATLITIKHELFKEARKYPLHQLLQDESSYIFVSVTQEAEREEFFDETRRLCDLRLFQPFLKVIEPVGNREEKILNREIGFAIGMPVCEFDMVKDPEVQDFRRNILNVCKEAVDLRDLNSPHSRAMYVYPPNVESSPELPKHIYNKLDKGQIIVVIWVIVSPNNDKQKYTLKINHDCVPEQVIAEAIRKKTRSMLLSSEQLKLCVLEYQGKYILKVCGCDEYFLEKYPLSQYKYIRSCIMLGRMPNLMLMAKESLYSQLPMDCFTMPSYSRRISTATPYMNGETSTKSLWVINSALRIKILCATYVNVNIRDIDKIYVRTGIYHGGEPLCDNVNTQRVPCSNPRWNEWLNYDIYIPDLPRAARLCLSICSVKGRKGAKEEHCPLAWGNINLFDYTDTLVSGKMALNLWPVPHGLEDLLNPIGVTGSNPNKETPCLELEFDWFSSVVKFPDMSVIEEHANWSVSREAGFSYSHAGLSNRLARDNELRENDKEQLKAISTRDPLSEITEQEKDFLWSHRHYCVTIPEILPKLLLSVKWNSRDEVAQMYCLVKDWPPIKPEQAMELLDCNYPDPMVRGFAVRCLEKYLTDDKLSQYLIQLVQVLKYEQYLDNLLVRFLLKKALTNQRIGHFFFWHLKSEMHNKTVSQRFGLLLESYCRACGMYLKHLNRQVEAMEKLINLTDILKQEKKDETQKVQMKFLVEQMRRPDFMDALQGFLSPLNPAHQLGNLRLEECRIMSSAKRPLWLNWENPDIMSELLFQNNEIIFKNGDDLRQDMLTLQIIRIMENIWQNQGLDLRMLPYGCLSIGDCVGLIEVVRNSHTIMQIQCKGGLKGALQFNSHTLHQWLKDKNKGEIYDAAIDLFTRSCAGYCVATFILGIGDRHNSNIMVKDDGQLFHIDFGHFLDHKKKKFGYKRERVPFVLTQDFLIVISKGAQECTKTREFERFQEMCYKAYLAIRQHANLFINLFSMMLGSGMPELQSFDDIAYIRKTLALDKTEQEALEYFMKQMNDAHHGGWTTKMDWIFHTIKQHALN
Chain of PI3K-p110 α (P27986 whole entry partner): as the sequence (P27986 whole entry partner) above

| SMILES | IC50 ([1]; Class IA enzyme, read-out: IC50 PI3K-p110β (uM) (Class IA Enzyme)) | class IA/IB PI3K selectivity ([1]; compared with industry-standard inhibitor LY294002, p110β vs p110γ) | IC50 ([2]; Class IB enzyme, read-out: IC50 PI3K-p110γ (uM) (Class IB Enzyme)) | IC50 ([1]; read-out: IC50 PI3K-p110β) | selectivity for PI3K-p110β ([1]; versus p110α, p110δ, p110γ) | IC50 ([2]; read-out: IC50 PI3K-p110γ) | IC50 [3] | IC50 [4] |
| --- | --- | --- | --- | --- | --- | --- | --- | --- |
| Nc1ccc(-c2cccc3c(=O)nc(N4CCOCC4)oc23)cc1 [Compound A, 8-(4-aminophenyl)-2-morpholino-4H-benzo[e][1,3]oxazin-4-one] | 2.34 µM | greater class IA/IB PI3K selectivity compared with industry-standard inhibitor, LY294002 | 20.5 µM | – | – | – | – | – |
| Nc1ccc(-c2cccc3c(=O)nc(N4CCOCC4)oc23)c(F)c1 [Compound B, 8-(4-Amino-2-fluoro-phenyl)-2-morpholin-4-yl-benzo[e][1,3]oxazin-4-one] | – | – | – | 0.538 µM | displays selectivity for PI3K-p110β | 17.8 µM | 3.41 µM | 1690 nM |

Source: patent publication US8981087B2, “Benzo [E] [1,3] oxazin-4-one derivatives as phosphoinositide 3-kinase inhibitors” (Karus Therapeutics Limited, priority 2009, dated 2015)
